From PMC7934800, “Amino- and polyaminophthalazin-1(2H)-ones: synthesis, coordination properties, and biological activity” (Beilstein Journal of Organic Chemistry, 2021)
pIC50: −log10 of the molar value.

How the values were obtained:
[1] = test system: HT-29 (human colon adenocarcinoma cell line); assay: MTT cytotoxicity assay, HT-29; assay type: cell-based; settings: 72 h of cell treatment, HT-29 cells
Text: (§1) We used the MTT assay to evaluate compounds 5c, 5d, 5f, 5g, 6b, and 6d for their potential activity on cytotoxicity, proliferation and growth of HT-29 (human colon adenocarcinoma cell line), PC-3 (human prostate cancer cell line) and L-929 cells (mouse fibroblast cell line).
(§2) 2.1 Materials and methods:
(§3) Trypsin-EDTA and all media (RPMI 1640, DMEM/F-12K and IMDM) were purchased from Biowest (CytoGen, Poland). Buffered saline (PBS), penicillin-streptomycin solution stabilized, fetal bovine serum (FBS), amino acids solution (MEM), β-mercaptoethanol, dimethyl sulfoxide (DMSO) and MTT 3-(4,5-dimethylthiazol-2-yl)- […] bromide were supplied by Sigma Aldrich Chemical Co (USA).
(§4) All tested cell lines were provided by American Type Culture Collection (ATCC, […]
(§5) Rockville, Manassas,VA, USA). […]
The HT-29 cells were cultured in RPMI-1640 medium containing 2 mM L-glutamine, 10 mM HEPES, 1 mM sodium pyruvate, 4500 mg/L glucose and 1500 mg/L sodium bicarbonate, supplemented with 10% (v/v) fetal bovine serum (FBS), 1% (v/v) penicillin/streptomycin and 1% (v/v) MEM amino acid’s solution. […]
(§6) Cells were maintained in a humidified incubator at 37 °C in a 5% CO2 atmosphere and were regularly screened for mycoplasma contamination. Exponential growth of the cells was controlled by their routine passaging at 90% confluence three times a week using 0.025% trypsin/EDTA.
(§7) 2.3 Cytotoxicity analysis – MTT assay:
(§8) The viability of the cells is associated with their mitochondrial integrity and capacity.
(§9) For that reason, in the MTT microplate assay with 3-(4,5-dimethylthiazol-2-yl)-[…] bromide, first described by Mosmann [ 5], only viable cells with intact metabolism have the ability to incorporate the yellow, water-soluble tetrazolium […]
(§10) dehydrogenase to the violet-blue formazan compound. After dissolving the formazan crystals in an organic solvent, e.g., dimethyl sulfoxide (DMSO), the absorbance of the formazan solution can be measured spectrophotometrically at 570 nm.
(§11) In our research, the MTT assay was used to describe the effect of the tested compounds on cytotoxicity, proliferation and growth of HT-29, PC-3 and L-929 cells.
(§12) Before treatments with the tested compounds the suspension of 8×10^3 cells in 100 µ L medium was transferred to each well of a standard 96-well microplate. Subsequently, the plates were incubated for 24 h (5% CO 2; 37 °C) to ensure cell growth.
(§13) Afterwards, the examined substances at 10 different concentrations were added in 2– […]
(§14) volume of 100 µL medium per well. These concentrations were obtained diluting the compounds first in DMSO and then in medium, which were subsequently used to treat cells cultures in a final DMSO concentration between 0.1 and 1% per well [6] (Da Violante et. al. 2002). As control, the first and last columns were filled only with medium […]
(§15) without studied compounds. Furthermore, blanks (wells without cells) were also […]
(§16) The plates were then incubated for 72 h (37 °C; 5% CO2). Subsequently, 25 µL of fresh MTT solution (5 mg/mL in PBS) was added to each well and the microplates were incubated in a humidified atmosphere for additional 3 h (37 °C; 5% CO2). After the incubation, the MTT solution was replaced by 100 µL of DMSO in order to dissolve formazan complexes and absorbance was immediately measured (microplate reader PowerWaveXS BioTek Instruments, Inc., USA) at 570 nm.
(§17) The IC50 value (concentration of an inhibitor which reduces the absorbance level in the treated cells in comparison to untreated cells by half) representing the cytotoxicity of a substance was evaluated for each studied compound using the GraphPad Prism 7.0 software system (GraphPad Prism Software Inc., USA). To determinate statistical significance between the results one-way variance analysis (ANOVA) was used. The samples homogeneity was tested using Bartlett’s test, followed by Dunnett’s test. All data are presented as the mean of the replicates from three independent experiments, with a significance level of p ≤ 0.05.

[2] = test system: PC-3 (human prostate cancer cell line); assay: MTT cytotoxicity assay, PC-3; assay type: cell-based; settings: 72 h of cell treatment, PC-3 cells
Text: as §1, §2, §3, §4, §5, §6, §7, §8, §9, §10, §11, §12, §13, §14, §15, §16, §17

[3] = test system: L-929 cells (mouse fibroblast cell line); assay: MTT cytotoxicity assay, L-929; assay type: cell-based; settings: L929, 72 h of cell treatment, L-929 control (non-cancer) cells
Text: as §1, §2, §3, §4, §5
In addition, the mouse fibroblast cell line
(L-929; ATCC® CCL-1™) was used as a model for non-cancer cells. […]
The L-929 was cultivated in IMDM Medium with 4 mM L-glutamine, 4500 mg/L glucose, and 1500 mg/L sodium bicarbonate supplemented with 10% (v/v) fetal bovine serum (FBS), 1% (v/v) penicillin/streptomycin and 1% (v/v) β-mercaptoethanol.
as §6, §7, §8, §9, §10, §11, §12, §13, §14, §15, §16
as §17, with “with a significance level of p ≤ 0.05.” left out

SMILES	melting point [°C]	pIC50 [1]	pIC50 [2]	pIC50 [3]
Cn1nc(N2CCOCC2)c2ccccc2c1=O [5a]	135 to 136	–	–	–
Cn1nc(N2CCSCC2)c2ccccc2c1=O [5b]	132 to 134	–	–	–
Cn1nc(N2CCCCC2)c2ccccc2c1=O [5c]	92 to 93	4.44	4.34	4.56
Cn1nc(NC2CCCCC2)c2ccccc2c1=O [5d]	–	4.53	4.70	4.69
CCCCCCNc1nn(C(C)C)c(=O)c2ccccc12 [5e]	86 to 87	–	–	–
CC(C)n1nc(NCCc2cccs2)c2ccccc2c1=O [5f]	121 to 123	4.56	4.56	4.70
Cn1nc(NCc2ccc(C(F)(F)F)cc2)c2ccccc2c1=O [5g]	216 to 218	4.50	4.65	4.67
COc1ccc(CNc2nn(C(C)C)c(=O)c3ccccc23)cc1 [5h]	108 to 110	–	–	–
Cn1nc(N(c2ccccc2)c2ccccn2)c2ccccc2c1=O [5i]	160 to 163	–	–	–
CCN(CC)CCCC(C)Nc1nn(C)c(=O)c2ccccc12 (centres unmarked) [6b]	84 to 86	4.29	4.18	4.03
CNCCNc1nn(C)c(=O)c2ccccc12 [6d]	153 to 155	4.12	4.08	4.28
CCN(CC)CCCC(C)Nc1nn(CCN(C)C)c(=O)c2ccccc12 (centres unmarked) [6e]	58 to 60	–	–	–
